What was measured:
Parameters in all cases: species or system human
PUMA expression = experiment: Cell-based Puma expression assay (western blot)
Description: (§1) Biological Example 4: Puma Expression and Caspases Activation Assay
(§2) Protocols for Cell-Based Puma Expression and Caspase Activation Assays
(§3) Cell lines: All human tumor-derived cancer cell lines were purchased from American Type Culture Collection. Human tumor-derived cancer cell lines Panc-1 (expressing KRas G12D mutant), MiaPaca-2 (expressing KRas G12C mutant), A549 (expressing KRas G12S mutant), and A375 (expressing wild type KRas) were grown in complete DMEM-High Glucose medium and NCI-H1975 (expressing wild type KRas), MM.1R (expressing wild type KRas) and IM.9 (expressing wild type KRas) were grown in RPMI1640 medium. Human tumor-derived cancer cell line BT-549 (expressing wild type KRas) was grown in RPMI1640 medium with 11.8U insulin. All mediums were supplemented with penicillin (100 U/mL), streptomycin (100 μg/mL), and 10% heat-inactivated FBS at 37° C. in a humidified incubator with 5% CO2.
(§4) Method: Cells were plated at 300,000 to 800,000 cells/well density in a 6-well plate in the presence of 10% FBS. The next day small molecules to be tested were added to the cells in the final concentration of 3 μM in the presence of 0.3% DMSO for 48 hours incubation at 37° C. For IC50 value determination, serial dilutions of compounds were added to cells under the same conditions. Following 48 hours of incubation cells were lysed with lysis buffer containing 1% Triton X-100, EDTA, and Halt™ Protease & Phosphatase Inhibitor Cocktail (Thermo Scientific). Protein concentration was assessed by BCA protein assay (Thermo Scientific). Increase expression of PUMA and active/cleaved forms of caspase 3, caspase 6 and caspase 9 were detected by western blot.
(§5) Western blot protocol: Equal amounts of protein (15-50 μg) were separated by SDS-PAGE and transferred to nitrocellulose membranes (Invitrogen by Thermo Fisher Scientific). The membrane was stained with Ponceau S Stain (Boston BioProducts) to verify uniform protein loading. Membranes were blocked with 10% milk and expression levels of PUMA was assessed by incubating overnight at 4° C. with the antibody PUMA (D30C10) from Cell Signaling Technology (#12450) and active/cleaved forms of caspase 3, caspase 6 and caspase 9 by incubating overnight at 4° C. with the following antibodies: cleaved caspase-3 (Asp175) (5A1E), cleaved caspase-6 (Asp162) and cleaved caspase-9 (Asp330) (D2D4) (all antibodies from Cell Signaling Technology). Then the membranes were incubated with HRP-conjugated secondary antibody (Jackson Immunoresearch, West Grove, PA). Bands were incubated in Amersham ECL Prime Western Blotting Detection Reagent (GE Healthcare) and visualized using the ChemiDoc MP imaging system (Bio-Rad).

active/cleaved caspase 6 = experiment: Cell-based caspase activation assay (western blot)
Description: as §1, §2, §3, §4, §5

active/cleaved caspase 3 = experiment: Cell-based caspase activation assay (western blot)
Description: as §1, §2, §3, §4, §5

active/cleaved caspase 9 = experiment: Cell-based caspase activation assay (western blot)
Description: as §1, §2, §3, §4, §5

Cc1c(-c2ccn(C(C)C)n2)cn2nc(-c3nccn3C)nc(Nc3cc4n(n3)CCO4)c12 [Compound 91, N-(6-(1-Isopropyl-1H-pyrazol-3-yl)-5-methyl-2-(1-methyl-1H-imidazol-2-yl)pyrrolo[2,1-f][1,2,4]triazin-4-yl)-2,3-dihydropyrazolo[5,1-b]oxazol-6-amine]
yes: Increased PUMA expression (PUMA expression; A549, after 48 hours) | Increased PUMA expression (PUMA expression; BT-549, after 48 hours) | Increased PUMA expression (PUMA expression; MiaPaca2, after 48 hours) | Caspase 6 activation (active/cleaved caspase 6; A549, after 48 hours) | Caspase 6 activation (active/cleaved caspase 6; BT-549, after 48 hours) | Caspase 6 activation (active/cleaved caspase 6; MiaPaca2, after 48 hours) | Caspase 3 activation (active/cleaved caspase 3; A549, after 48 hours) | Caspase 3 activation (active/cleaved caspase 3; BT-549, after 48 hours) | Caspase 3 activation (active/cleaved caspase 3; MiaPaca2, after 48 hours) | Caspase 9 activation (active/cleaved caspase 9; A549, after 48 hours) | Caspase 9 activation (active/cleaved caspase 9; BT-549, after 48 hours) | Caspase 9 activation (active/cleaved caspase 9; MiaPaca2, after 48 hours)

From patent publication US12459951B2, “Compounds that interact with RAS superfamily proteins for treatment of cancers, inflammatory diseases, rasopathies, and fibrotic disease” (SHY Therapeutics, LLC, priority 2022, dated 2025)
